Values quoted from earlier work as cited in US20110293691A1, “MULTIMODAL ADHESION BARRIER” (priority 2010, published 2011).

System: rat model
Settings: oral or intraperitoneal, about one week prior to surgery and three weeks postoperatively

O=C(CC1NCCCC1O)Cn1cnc2cc(Br)c(Cl)cc2c1=O (stereo not shown) [Halofuginone, 7-bromo-6-chloro-3-[3-(3-hydroxy-2-piperidinyl)-2-oxopropyl]-4(3H)]
prevention of adhesions (in words): prevent adhesions in a rat model in a dose dependent manner
